Measured values reported in PMC4769034 (Journal of medicinal chemistry, 2015).
Converted amounts (≈) assume the structure as drawn.

Columns and labels:
[1] = Solubility in water by HPLC analysis
[2] = Solubility in ethanol by HPLC analysis; details: vs compound 1
[3] = system: PKA; details: cited from earlier work
[4] = system: MIA PaCa-2 cells; details: 10 mg/kg via i.p. injection for 3 weeks; cited from earlier work
[5] = system: plasma leptin; details: 50 mg/kg by oral gavage for 3 weeks; cited from earlier work
[6] = system: rickettsial infection; details: mouse, in vivo; cited from earlier work
[7] = system: pancreatic ductal adenocarcinoma (PDA) cells; details: cited from earlier work
[8] = system: Middle East respiratory syndrome coronavirus (MERS-Cov); details: cited from earlier work
[9] = cited from earlier work
[10] = cited from earlier work; remark: listed apart in the source
[11] = no reference given; cited from earlier work
[12] = system: PDEs; details: cited from earlier work
[13] = system: hERG; details: cited from earlier work
[14] = system: CYP450 enzymes; details: cited from earlier work

## CC(C)(C)c1cc(C(=O)/C(C#N)=N/Nc2cc(C(F)(F)F)cc(C(F)(F)F)c2)no1 [Compound 25, N′-(3,5-Bis(trifluoromethyl)phenyl)-2-(5-tert-butylisoxazol-3-yl)-2-oxoacetohydrazonoyl Cyanide]
[1]; vs compound 1
  fold improvement of solubility in water in comparison with 1: approximately 70 fold
[1]; water
  solubility at 24 h: 418 ± 17.3 µg/mL (≈ 968 µM)
[2]
  fold improvement of solubility in ethanol in comparison with 1: ~10 fold

## CC(C)(C)c1cc(C(=O)/C(C#N)=N/Nc2cccc(Cl)c2)no1 [Compound 1, 2-(5-tert-butylisoxazol-3-yl)-N′-(3-chlorophenyl)-2-oxoacetohy-drazonoyl cyanide]
[3]
  effect toward PKA: no effect
[4]
  metastasis to the liver: significantly decrease metastasis to the liver
[5]
  plasma leptin: significantly reduces plasma leptin
[6]
  survival after rickettsial infection: dramatically improved survival
[7]
  PDA cell migration and invasion: significant decrease
  effect on PDA cell proliferation and viability: no obvious effect
[8]
  MERS-CoV viral yields: significantly reduce viral yields
[9]
  bioavailability: excellent bioavailability
[10]
  toxicity to animals: low toxicity
[11]
  membrane permeability: good membrane permeability
[12]
  inhibitory effects on PDEs: no significant inhibitory effects
[13]
  inhibitory activity toward hERG: very weak inhibitory activities
[14]
  inhibitory activity toward CYP450 enzymes: very weak inhibitory activities
